Experimental data: US11534437B2, “Methods of treating radiation induced gastrointestinal syndrome (RIGS) and related disease states using compound 512” (BCN Biosciences L.L.C., priority 2017, dated 2022)

Legend:
plasma cytokines = assay: Plasma cytokine levels in rodents after lower thoracic radiation; assay type: in vivo; settings: LTI + 512, 5 mg/kg 512
From the text: Ctl, control with no treatment. LTI, lower thoracic radiation, LTI+512, radiation, and 512. The cytokine phenotype is anti-inflammatory where IL-6 is an anti-inflammatory cytokine required for controlling local or systemic acute inflammatory responses and IL-1 is pro inflammatory and so forth.

[1] = tested on: HEK293 cells having TCF/LEF luciferase reporter construct; assay: TCF/LEF luciferase reporter assay for canonical WNT activity; assay type: cell-based; settings: LiCl 10 mM, 24 hr
Description: To determine the canonical WNT activity in 512 (28.78 μM) HEK293 cells having TCF/LEF luciferase reporter construct were treated with 512 or vehicle control. LiCl (10 mM) treatment was used as positive control for luciferase activity. Luciferase activity was determined 24 hr after using Dual-Luciferase® Reporter Assay System (Promega) as per manufacturer's protocol. HEK293 cells having FOPFLASH construct were used as negative control. […] WNT-β catenin signaling is well known to promote the self renewal and differentiation of LGR5+ epithelial (lung, oral, intestinal) stem cells.

Compound | plasma IL-6 level (plasma cytokines; Ctl 7, LTI 15) | plasma KC level (plasma cytokines; Ctl 10, LTI 210) | plasma IL-23 level (plasma cytokines; Ctl 13, LTI 79) | plasma MCP-1 level (plasma cytokines; Ctl 17, LTI 103) | plasma MIP-1b level (plasma cytokines; Ctl 25, LTI 88) | plasma IL-1b level (plasma cytokines; Ctl 32, LTI 50) | luciferase activity (positive control) [1]
O=[N+]([O-])c1ccc(S(=O)(=O)N2CCN(c3ccccc3)CC2)cc1 [Compound 512, 1-[(4-nitrobenezene)sulfonyl]-4-phenyl piperazine] | 88 | 245 | 23 | 77 | 13 | 7 | 
[Cl-].[Li+] [LiCl] |  |  |  |  |  |  | significant increase in Luciferase activity
